This assay has as its target FP receptor (Homo sapiens (Human), UniProt P43088). As to the kind of experiment: In vitro test of inhibition of human FP receptor activity (PGF2α-induced calcium flux in FP-expressing CHEM1 cells). It counts as cell-based. Conditions: PGF2α 2 nM, some mean values of multiple determinations. Here is the method: B-1. In Vitro Test of Inhibition of Human FP Receptor Activity
For the characterization of test substances in respect of FP antagonism, PGF2α-induced calcium flux in FP-expressing CHEM1 cells (Millipore, HTS093C) was used.
10 μl of the prediluted substance solution are added to the Fluo-8-laden cells and incubated at 37° C., 5% CO2 for 10 minutes. The FP receptor is activated by adding 40 μl of 2 nM (final concentration) PGF2α in calcium-free Tyrode, 2 mM CaCl2, 0.002% SmartBlock, and the calcium flux is determined by measuring the fluorescence at ex. 470 nm/[…].
Table 1 below lists the IC50 values from this assay for individual working examples of the invention (some as mean values from multiple independent individual determinations): […]

FP receptor, sequence (P43088 whole entry): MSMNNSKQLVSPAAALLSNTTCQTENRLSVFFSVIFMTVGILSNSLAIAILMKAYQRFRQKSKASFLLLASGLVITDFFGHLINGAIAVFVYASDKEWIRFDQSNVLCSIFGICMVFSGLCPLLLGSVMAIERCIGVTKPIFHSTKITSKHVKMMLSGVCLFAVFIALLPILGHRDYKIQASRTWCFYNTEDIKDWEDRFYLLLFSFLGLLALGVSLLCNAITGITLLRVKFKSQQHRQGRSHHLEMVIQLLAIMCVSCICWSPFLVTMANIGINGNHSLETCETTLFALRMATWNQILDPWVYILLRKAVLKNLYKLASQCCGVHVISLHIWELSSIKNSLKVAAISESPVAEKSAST

A word on the IC50: it is the point on the concentration scale where inhibition reaches its midpoint. As to `Cc1c(N2CCCCC2)nc2ccc(Br)cc2c1C(=O)NCC(CCC(=O)O)c1cccc(F)c1Cl` (single isomer, unassigned; (-)) [Example 142, (−)-5-({[6-Bromo-3-methyl-2-(piperidin-1-yl)quinolin-4-yl]carbonyl}amino)-4-(2-chloro-3-fluorophenyl)pentanoic acid], the half-maximal inhibitory concentration (IC50) stood at 4.3 nM.

As to `Cc1c(N2CCC(C)(F)C2)nc2ccc(Br)cc2c1C(=O)NCC(CCC(=O)O)c1ccccc1Cl` (stereo not drawn) [Example 71, 5-[({6-Bromo-2-[3-fluoro-3-methylpyrrolidin-1-yl]-3-methylquinolin-4-yl}carbonyl)amino]-4-(2-chlorophenyl)pentanoic acid], the IC50 came to 110 nM.

Regarding `Cc1c(N2CCSCC2)nc2ccc(Br)cc2c1C(=O)NCC(CCC(=O)O)c1ccccc1Cl` (single isomer, unassigned; (+)) [Example 26, (+)-5-({[6-Bromo-3-methyl-2-(thiomorpholin-4-yl)quinolin-4-yl]carbonyl}amino)-4-(2-chlorophenyl)pentanoic acid], the IC50 amounted to 21 nM.

As to `Cc1c(N2CCCC(C)C2)nc2ccc(Br)cc2c1C(=O)NCC(CCC(=O)O)c1ccccc1OC(F)(F)F` (single isomer, unassigned; (-)) [Example 210, (−)-5-[({6-Bromo-3-methyl-2-[3-methylpiperidin-1-yl]quinolin-4-yl}carbonyl)amino]-4-[2-(trifluoromethoxy)phenyl]pentanoic acid], the IC50 worked out at 0.68 nM.

As for `Cc1c(N2CC[C@@H](F)C2)nc2ccc(Br)cc2c1C(=O)NCC(CCC(=O)O)c1ccccc1Cl` (single isomer, unassigned; (+)) [Example 67], the 50% inhibitory concentration (IC50) was 6.5 nM.

On to `Cc1c(N2CCCC(C)(C)C2)nc2ccc(Br)cc2c1C(=O)NCC(CCC(=O)O)c1ccccc1Cl` (single isomer, unassigned; (+)) [Example 44, (+)-5-({[6-Bromo-2-(3,3-dimethylpiperidin-1-yl)-3-methylquinolin-4-yl]carbonyl}amino)-4-(2-chlorophenyl)pentanoic acid], for which the IC50 was 120 nM.

In the case of `Cc1c(N2CCCC(F)(F)C2)nc2ccc(Br)cc2c1C(=O)NCC(CCC(=O)O)c1ccccc1Cl` (single isomer, unassigned; (-)) [Example 51, (−)-5-({[6-Bromo-2-(3,3-difluoropiperidin-1-yl)-3-methylquinolin-4-yl]carbonyl}amino)-4-(2-chlorophenyl)pentanoic acid], the IC50 stood at 13 nM.

For `Cc1c(N2CCCCC2)nc2ccc(Br)cc2c1C(=O)NCC(CCC(=O)O)c1c(F)cccc1C(F)(F)F` (single isomer, unassigned; (-)) [Example 161, (−)-5-({[6-Bromo-3-methyl-2-(piperidin-1-yl)quinolin-4-yl]carbonyl}amino)-4-[2-fluoro-6-(trifluoromethyl)phenyl]pentanoic acid], the IC50 was found to be 1.4 nM.

As for `CCC1CCCN(c2nc3ccc(Br)cc3c(C(=O)NCC(CCC(=O)O)c3ccccc3Cl)c2C)C1` (single isomer, unassigned; (+)) [Example 61, (+)-5-[({6-Bromo-2-[3-ethylpiperidin-1-yl]-3-methylquinolin-4-yl}carbonyl)amino]-4-(2-chlorophenyl)pentanoic acid], the IC50 came out at 0.83 nM.

Turning to `Cc1c(N2CCCCC2)nc2ccc(Br)cc2c1C(=O)NCC(CCC(=O)O)c1ccccc1OC(F)(F)F` (single isomer, unassigned; (-)) [Example 127, (−)-5-({[6-Bromo-3-methyl-2-(piperidin-1-yl)quinolin-4-yl]carbonyl}amino)-4-[2-(trifluoromethoxy)phenyl]pentanoic acid], the IC50 turned out to be 0.79 nM.

As for `Cc1c(NCc2ccccc2)nc2ccc(Br)cc2c1C(=O)NCC(CCC(=O)O)c1ccccc1Cl` (racemic) [Example 96, (+/−)-5-({[2-(Benzylamino)-6-bromo-3-methylquinolin-4-yl]carbonyl}amino)-4-(2-chlorophenyl)pentanoic acid], the IC50 stood at 950 nM.

For `Cc1c(NCCC(F)(F)F)nc2ccc(Br)cc2c1C(=O)NCC(CCC(=O)O)c1ccccc1Cl` (racemic) [Example 98, (+/−)-5-[({6-Bromo-3-methyl-2-[(3,3,3-trifluoropropyl)amino]quinolin-4-yl}carbonyl)amino]-4-(2-chlorophenyl)pentanoic acid], the IC50 is 530 nM.

As to `CCC1CCCN(c2nc3ccc(Br)cc3c(C(=O)NCC(CCC(=O)O)c3c(F)cccc3F)c2C)C1` (stereo not drawn) [Example 254, 5-[({6-Bromo-2-(3-ethylpiperidin-1-yl)-3-methylquinolin-4-yl}carbonyl)amino]-4-(2,6-difluorophenyl)pentanoic acid], the IC50 was 2.8 nM.

On to `Cc1c(N2CCCC(F)C2)nc2ccc(Br)cc2c1C(=O)NCC(CCC(=O)O)c1ccccc1OC(F)(F)F` (single isomer, unassigned; (+)) [Example 204, (+)-5-[({6-Bromo-2-[3-fluoropiperidin-1-yl]-3-methylquinolin-4-yl}carbonyl)amino]-4-[2-(trifluoromethoxy)phenyl]pentanoic acid], for which the IC50 was found to be 2.6 nM.

As for `Cc1c(N2CCCC(F)(F)C2)nc2ccc(Br)cc2c1C(=O)NCC(CCC(=O)O)c1c(F)cccc1C(F)(F)F` (racemic) [Example 166, (+/−)-5-({[6-Bromo-2-(3,3-difluoropiperidin-1-yl)-3-methylquinolin-4-yl]carbonyl}amino)-4-[2-fluoro-6-(trifluoromethyl)phenyl]pentanoic acid], the IC50 turned out to be 9.5 nM.

As for `Cc1c(NCCc2ccccc2)nc2ccc(Br)cc2c1C(=O)NCC(CCC(=O)O)c1ccccc1Cl` (racemic) [Example 94, (+/−)-5-[({6-Bromo-3-methyl-2-[(2-phenylethyl)amino]quinolin-4-yl}carbonyl)amino]-4-(2-chlorophenyl)pentanoic acid], the concentration for half-maximal inhibition (IC50) is 15 nM.

For the compound `Cc1c(N2CCC(O)C2)nc2ccc(Br)cc2c1C(=O)NCC(CCC(=O)O)c1cc(F)ccc1Cl` (stereo not drawn) [Example 16, 5-[({6-Bromo-2-[3-hydroxypyrrolidin-1-yl]-3-methylquinolin-4-yl}carbonyl)amino]-4-(2-chloro-5-fluorophenyl)pentanoic acid], the IC50 stood at 290 nM.

`Cc1c(N2CCCC2)nc2ccc(Br)cc2c1C(=O)NCC(CCC(=O)O)c1c(F)cccc1F` (single isomer, unassigned; (-)) [Example 249, (−)-5-({[6-Bromo-3-methyl-2-(pyrrolidin-1-yl)quinolin-4-yl]carbonyl}amino)-4-(2,6-difluorophenyl)pentanoic acid]: the IC50 amounted to 9.4 nM.

Take `Cc1c(N2CCCC(F)(F)C2)nc2ccc(Br)cc2c1C(=O)NCC(CCC(=O)O)c1cc(F)ccc1F` (racemic) [Example 261, (+/−)-5-({[6-Bromo-2-(3,3-difluoropiperidin-1-yl)-3-methylquinolin-4-yl]carbonyl}amino)-4-(2,5-difluorophenyl)pentanoic acid]: the IC50 is 28 nM.

As for `Cc1c(N2CCCC(CO)C2)nc2ccc(Br)cc2c1C(=O)NCC(CCC(=O)O)c1cc(F)ccc1Cl` (stereo not drawn) [Example 21, 5-[({6-Bromo-2-[3-(hydroxymethyl)piperidin-1-yl]-3-methylquinolin-4-yl}carbonyl)amino]-4-(2-chloro-5-fluorophenyl)pentanoic acid], the IC50 turned out to be 230 nM.

With `CCC1CCCN(c2nc3ccc(Br)cc3c(C(=O)NCC(CCC(=O)O)c3ccccc3C(F)(F)F)c2C)C1` (stereo not drawn) [Example 124, 5-[({6-Bromo-2-[3-ethylpiperidin-1-yl]-3-methylquinolin-4-yl}carbonyl)amino]-4-[2-(trifluoromethyl)phenyl]pentanoic acid], the IC50 was 2.8 nM.

As for `Cc1c(N2CCCC(C)C2)nc2ccc(Br)cc2c1C(=O)NCC(CCC(=O)O)c1ccccc1C(F)(F)F` (single isomer, unassigned; (+)) [Example 198, (+)-5-[({6-Bromo-3-methyl-2-[3-methylpiperidin-1-yl]quinolin-4-yl}carbonyl)amino]-4-[2-(trifluoromethyl)phenyl]pentanoic acid], the IC50 is 3.7 nM.

Consider `Cc1c(N2CCCCC2)nc2ccc(Br)cc2c1C(=O)NCC(CCC(=O)O)c1c(F)cccc1OC(F)F` (single isomer, unassigned; (-)) [Example 183, (−)-5-({[6-Bromo-3-methyl-2-(piperidin-1-yl)quinolin-4-yl]carbonyl}amino)-4-[2-(difluoromethoxy)-6-fluorophenyl]pentanoic acid], for which the IC50 was determined as 1.6 nM.

Consider `Cc1c(N2CCCC2)nc2ccc(Br)cc2c1C(=O)NCC(CCC(=O)O)c1c(F)ccc(F)c1Cl` (racemic) [Example 154, (+/−)-5-({[6-Bromo-3-methyl-2-(pyrrolidin-1-yl)quinolin-4-yl]carbonyl}amino)-4-(2-chloro-3,6-difluorophenyl)pentanoic acid], for which the half-inhibitory concentration (IC50) turned out to be 3.4 nM.

Turning to `Cc1c(N2CCCC(F)C2)nc2ccc(Br)cc2c1C(=O)NCC(CCC(=O)O)c1ccccc1OC(F)(F)F` (single isomer, unassigned; (-)) [Example 201, (−)-5-[({6-Bromo-2-[3-fluoropiperidin-1-yl]-3-methylquinolin-4-yl}carbonyl)amino]-4-[2-(trifluoromethoxy)phenyl]pentanoic acid], the IC50 worked out at 2.7 nM.

Regarding `Cc1c(N2CCCCC2)nc2ccc(Br)cc2c1C(=O)NCC(CCC(=O)O)c1c(F)cccc1F` (racemic) [Example 244, (+/−)-5-({[6-Bromo-3-methyl-2-(piperidin-1-yl)quinolin-4-yl]carbonyl}amino)-4-(2,6-difluorophenyl)pentanoic acid], the IC50 came out at 12 nM.

Take `Cc1c(N2CCC[C@@H]2C)nc2ccc(Br)cc2c1C(=O)NCC(CCC(=O)O)c1ccccc1Cl` (single isomer, unassigned; (-)) [Example 80]: the IC50 came to 98 nM.

(Values after patent US11149018B2, “Substituted N-arylethyl-2-aminoquinoline-4-carboxamides and use thereof” (Bayer Aktiengesellschaft, priority 2017, dated 2021).)
